Patent US20240270741A1 (Cogent Biosciences, Inc., priority 2023, published 2024)

Biological target: FGFR2 (Homo sapiens, UniProt P21802)
Assay: FGFR wild type enzyme assay (HTRF KinEASE-TK), FGFR2
Conditions: Enz FGFR2 (nM)

Chain of FGFR2 (P21802 399-821 limits assumed): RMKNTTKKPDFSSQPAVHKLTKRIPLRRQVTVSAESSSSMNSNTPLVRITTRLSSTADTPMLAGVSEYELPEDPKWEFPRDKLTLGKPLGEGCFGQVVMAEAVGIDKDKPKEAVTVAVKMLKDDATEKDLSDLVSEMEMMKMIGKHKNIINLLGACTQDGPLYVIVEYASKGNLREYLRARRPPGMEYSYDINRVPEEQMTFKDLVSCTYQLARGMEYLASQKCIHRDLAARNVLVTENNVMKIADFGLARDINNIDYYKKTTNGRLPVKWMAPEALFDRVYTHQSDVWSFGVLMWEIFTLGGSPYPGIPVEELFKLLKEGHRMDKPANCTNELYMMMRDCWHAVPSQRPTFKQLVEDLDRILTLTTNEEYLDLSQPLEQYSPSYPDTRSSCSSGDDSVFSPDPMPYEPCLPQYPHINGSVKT

Row | IC50 [nM] | IC50 (FGFR2 wild type enzyme) [nM] | Compound
1 | 1 |  | Cc1c(-c2cc(Sc3ccccc3C#N)c3c(C#N)cnn3c2)cnn1[C@H]1CCNC1 [Example 122, 4-(2-cyanophenyl)sulfanyl-6-[5-methyl-1-[(3S)-pyrrolidin-3-yl]pyrazol-4-yl]pyrazolo[1,5-a]pyridine-3-carbonitrile]
2 | 9 |  | Cc1c(-c2cc(Sc3ccc(Cl)cc3C#N)c3c(C#N)cnn3c2)cnn1C1CCNCC1 [Example 123, 4-(4-chloro-2-cyano-phenyl)sulfanyl-6-[5-methyl-1-(4-piperidyl)pyrazol-4-yl]pyrazolo[1,5-a]pyridine-3-carbonitrile]
3 | 1 |  | Cc1c(-c2cc(Sc3ccccc3C#N)c3c(C#N)cnn3c2)cnn1[C@H]1CC[C@@H](N(C)C)CC1 [Example 124]
4 | 1 |  | Cc1c(-c2cc(Sc3ccccc3F)c3c(C#N)cnn3c2)cnn1C1CCN(C)CC1 [Example 125]
5 | 1 |  | CN1CCC[C@H]1C(=O)N1CCC(n2cc(-c3cc(Sc4ncccc4F)c4c(C#N)cnn4c3)cn2)CC1 [Example 126, 4-[(3-fluoro-2-pyridyl)sulfanyl]-6-[1-[1-[(2S)-1-methylpyrrolidine-2-carbonyl]-4-piperidyl]pyrazol-4-yl]pyrazolo[1,5-a]pyridine-3-carbonitrile]
6 | 1 |  | CN1CCC[C@@H]1C(=O)N1CCC(n2cc(-c3cc(Sc4ncccc4F)c4c(C#N)cnn4c3)cn2)CC1 [Example 127, 4-[(3-fluoro-2-pyridyl)sulfanyl]-6-[1-[1-[(2R)-1-methylpyrrolidine-2-carbonyl]-4-piperidyl]pyrazol-4-yl]pyrazolo[1,5-a]pyridine-3-carbonitrile]
7 | 2 |  | Cc1ccc(Sc2cc(-c3cnn(C4CCNCC4)c3C)cn3ncc(C#N)c23)nc1C [Example 129]
8 | 40 |  | Cc1c(-c2cc(Sc3cccc4c3ncn4C)c3c(C#N)cnn3c2)cnn1C1CCN(C)CC1 [Example 131, 4-(1-methylbenzimidazol-4-yl)sulfanyl-6-[5-methyl-1-(1-methyl-4-piperidyl)pyrazol-4-yl]pyrazolo[1,5-a]pyridine-3-carbonitrile]
9 | 10 |  | Cc1c(-c2cc(Sc3cccc4ncn(C)c34)c3c(C#N)cnn3c2)cnn1C1CCN(C)CC1 [Example 132, 4-(3-methylbenzimidazol-4-yl)sulfanyl-6-[5-methyl-1-(1-methyl-4-piperidyl)pyrazol-4-yl]pyrazolo[1,5-a]pyridine-3-carbonitrile]
10 | 6 |  | Cc1c(-c2cc(Sc3cccc4c3cnn4C)c3c(C#N)cnn3c2)cnn1C1CCN(C)CC1 [Example 133, 4-(1-methylindazol-4-yl)sulfanyl-6-[5-methyl-1-(1-methyl-4-piperidyl)pyrazol-4-yl]pyrazolo[1,5-a]pyridine-3-carbonitrile]
11 | 1 |  | Cc1c(-c2cc(Sc3ccccc3F)c3c(C#N)cnn3c2)cnn1[C@H]1CCCNC1 [Example 134, 4-(2-fluorophenyl)sulfanyl-6-[5-methyl-1-[(3S)-3-piperidyl]pyrazol-4-yl]pyrazolo[1,5-a]pyridine-3-carbonitrile]
12 |  | 1 | Cc1c(-c2cc(Sc3ccc(F)cc3C#N)c3c(C#N)cnn3c2)cnn1C1CCNCC1 [Example 135, 4-4-((2-cyano-4-fluorophenyl)thio)-6-(5-methyl-1-(piperidin-4-yl)-1H-pyrazol-4-yl)pyrazolo[1,5-a]pyridine-3-carbonitrile]
13 |  | 4 | Cc1c(-c2cc(Sc3ccccc3F)c3c(C#N)cnn3c2)cnn1[C@@H]1CCCNC1 [Example 136, (R)-4-((2-fluorophenyl)thio)-6-(5-methyl-1-(piperidin-3-yl)-1H-pyrazol-4-yl)pyrazolo[1,5-a]pyridine-3-carbonitrile]
14 |  | 1 | Cc1c(-c2cc(Sc3c(F)cccc3C#N)c3c(C#N)cnn3c2)cnn1C1CCNCC1 [Example 137, 4-((2-cyano-6-fluorophenyl)thio)-6-(5-methyl-1-(piperidin-4-yl)-1H-pyrazol-4-yl)pyrazolo[1,5-a]pyridine-3-carbonitrile]
15 |  | 1 | Cc1c(-c2cc(Sc3ccccc3C#N)c3c(C#N)cnn3c2)cnn1C1CCN(CCO)CC1 [Example 138, 4-((2-cyanophenyl)thio)-6-(1-(1-(2-hydroxyethyl)piperidin-4-yl)-5-methyl-1H-pyrazol-4-yl)pyrazolo[1,5-a]pyridine-3-carbonitrile]
16 |  | 1 | COCCN1CCC(n2ncc(-c3cc(Sc4ccccc4C#N)c4c(C#N)cnn4c3)c2C)CC1 [Example 139, 4-((2-cyanophenyl)thio)-6-(1-(1-(2-methoxyethyl)piperidin-4-yl)-5-methyl-1H-pyrazol-4-yl)pyrazolo[1,5-a]pyridine-3-carbonitrile]
17 |  | 1 | CO[C@H](C)CN1CCC(n2ncc(-c3cc(Sc4ccccc4C#N)c4c(C#N)cnn4c3)c2C)CC1 [Example 140, (R)-4-((2-cyanophenyl)thio)-6-(1-(1-(2-methoxypropyl)piperidin-4-yl)-5-methyl-1H-pyrazol-4-yl)pyrazolo[1,5-a]pyridine-3-carbonitrile]

Row | IC50 [nM] | IC50 (FGFR2 wild type enzyme) [nM] | Compound
18 |  | 1 | Cc1c(-c2cc(Sc3ccccc3C#N)c3c(C#N)cnn3c2)cnn1C1CCN(C[C@@H](C)O)CC1 [Example 141, (R)-4-((2-cyanophenyl)thio)-6-(1-(1-(2-hydroxypropyl)piperidin-4-yl)-5-methyl-1H-pyrazol-4-yl)pyrazolo[1,5-a]pyridine-3-carbonitrile]
19 |  | 13 | Cc1c(-c2cc(Sc3ccccc3C#N)c3c(C#N)cnn3c2)cnn1C1CCN(C[C@H](C)O)CC1 [Example 142, (S)-4-((2-cyanophenyl)thio)-6-(1-(1-(2-hydroxypropyl)piperidin-4-yl)-5-methyl-1H-pyrazol-4-yl)pyrazolo[1,5-a]pyridine-3-carbonitrile]
20 |  | 2 | Cc1c(-c2cc(Sc3ncccc3F)c3c(C#N)cnn3c2)cnn1C1CCN(C[C@@H](C)O)CC1 [Example 143, (R)-4-((3-fluoropyridin-2-yl)thio)-6-(1-(1-(2-hydroxypropyl)piperidin-4-yl)-5-methyl-1H-pyrazol-4-yl)pyrazolo[1,5-a]pyridine-3-carbonitrile]
21 |  | 1.5 | Cc1c(-c2cc(Sc3ncccc3F)c3c(C#N)cnn3c2)cnn1C1CCN(C[C@H](C)O)CC1 [Example 144, (S)-4-((3-fluoropyridin-2-yl)thio)-6-(1-(1-(2-hydroxypropyl)piperidin-4-yl)-5-methyl-1H-pyrazol-4-yl)pyrazolo[1,5-a]pyridine-3-carbonitrile]
22 |  | 7 | Cc1c(-c2cc(Sc3c(F)cc(F)cc3C#N)c3c(C#N)cnn3c2)cnn1C1CCNCC1 [Example 145, 4-((2-cyano-4,6-difluorophenyl)thio)-6-(5-methyl-1-(piperidin-4-yl)-1H-pyrazol-4-yl)pyrazolo[1,5-a]pyridine-3-carbonitrile]
23 |  | 2 | Cc1c(-c2cc(Sc3ncccc3F)c3c(C#N)cnn3c2)cnn1C1CCN([C@@H](C)CO)CC1 [Example 146, (S)-4-((3-fluoropyridin-2-yl)thio)-6-(1-(1-(1-hydroxypropan-2-yl)piperidin-4-yl)-5-methyl-1H-pyrazol-4-yl)pyrazolo[1,5-a]pyridine-3-carbonitrile]
24 |  | 2 | Cc1c(-c2cc(Sc3ncccc3F)c3c(C#N)cnn3c2)cnn1C1CCN([C@H](C)CO)CC1 [Example 147, (R)-4-((3-fluoropyridin-2-yl)thio)-6-(1-(1-(1-hydroxypropan-2-yl)piperidin-4-yl)-5-methyl-1H-pyrazol-4-yl)pyrazolo[1,5-a]pyridine-3-carbonitrile]
25 |  | 2 | CO[C@H](C)CN1CCC(n2ncc(-c3cc(Sc4ncccc4F)c4c(C#N)cnn4c3)c2C)CC1 [Example 148, (R)-4-((3-fluoropyridin-2-yl)thio)-6-(1-(1-(2-methoxypropyl)piperidin-4-yl)-5-methyl-1H-pyrazol-4-yl)pyrazolo[1,5-a]pyridine-3-carbonitrile]
26 |  | 2 | CO[C@@H](C)CN1CCC(n2ncc(-c3cc(Sc4ncccc4F)c4c(C#N)cnn4c3)c2C)CC1 [Example 149, (S)-4-((3-fluoropyridin-2-yl)thio)-6-(1-(1-(2-methoxypropyl)piperidin-4-yl)-5-methyl-1H-pyrazol-4-yl)pyrazolo[1,5-a]pyridine-3-carbonitrile]
27 |  | 4 | Cc1c(-c2cc(Sc3ncccc3F)c3c(C#N)cnn3c2)cnn1C[C@@H]1CCCNC1 [Example 150, (R)-4-((3-fluoropyridin-2-yl)thio)-6-(5-methyl-1-(piperidin-3-ylmethyl)-1H-pyrazol-4-yl)pyrazolo[1,5-a]pyridine-3-carbonitrile]
28 |  | 2 | Cc1c(-c2cc(Sc3c(F)cc(F)cc3C#N)c3c(C#N)cnn3c2)cnn1C1CCN(C)CC1 [Example 151]
29 |  | 2 | CC(=O)N1CCC(n2ncc(-c3cc(Sc4ncccc4F)c4c(C#N)cnn4c3)c2C)CC1 [Example 152, 6-(1-(1-acetylpiperidin-4-yl)-5-methyl-1H-pyrazol-4-yl)-4-((3-fluoropyridin-2-yl)thio)pyrazolo[1,5-a]pyridine-3-carbonitrile]
30 |  | 2 | Cc1c(-c2cc(Sc3ncccc3F)c3c(C#N)cnn3c2)cnn1C1CCN(S(C)(=O)=O)CC1 [Example 153, 4-[(3-fluoro-2-pyridyl)sulfanyl]-6-[5-methyl-1-(1-methylsulfonyl-4-piperidyl)pyrazol-4-yl]pyrazolo[1,5-a]pyridine-3-carbonitrile]
31 |  | 2 | Cc1c(-c2cc(Sc3ncccc3F)c3c(C#N)cnn3c2)cnn1[C@H]1CCNC[C@@H]1F [Example 154, 6-[1-[(3S,4S)-3-fluoro-4-piperidyl]-5-methyl-pyrazol-4-yl]-4-[(3-fluoro-2-pyridyl)sulfanyl]pyrazolo[1,5-a]pyridine-3-carbonitrile]
32 |  | 1 | CO[C@@H](C)CN1CCC(n2ncc(-c3cc(Sc4ccccc4C#N)c4c(C#N)cnn4c3)c2C)CC1 [Example 157, (S)-4-((2-cyanophenyl)thio)-6-(1-(1-(2-methoxypropyl)piperidin-4-yl)-5-methyl-1H-pyrazol-4-yl)pyrazolo[1,5-a]pyridine-3-carbonitrile]
33 |  | 2 | COCC(C)N1CCC(n2ncc(-c3cc(Sc4ncccc4F)c4c(C#N)cnn4c3)c2C)CC1 (stereo not drawn) [Example 158, 4-((3-fluoropyridin-2-yl)thio)-6-(1-(1-(1-methoxypropan-2-yl)piperidin-4-yl)-5-methyl-1H-pyrazol-4-yl)pyrazolo[1,5-a]pyridine-3-carbonitrile]
